Laboratory results reported in US20100234390A1, “NOVEL COMPOUND AND THEIR USE” (priority 2007, published 2010).

Tests used:
Assay in all cases: Agar dilution MIC
Details in all cases: 35° C., 16-20 hours
E. faecium ATCC 700221 = type: cell-based, Enterococcus faecium
Protocol: (§1) Briefly, the compounds of invention were weighed, dissolved in dimethyl sulfoxide, serially two fold diluted in the same solvent and then incorporated into molten Mueller Hinton Agar (MHA) in a petridish just before solidification, with each petridish containing a different concentration of a compound.
(§2) The bacterial inoculum was prepared by picking 3 to 5 well isolated bacterial colonies with the same morphological appearance from an 18-24 hours old culture with an inoculating loop, transferring the growth to a tube containing 3 mL of normal saline and adjusting the turbidity of the saline suspension to 0.5 Mc Farland Turbidity Standard equivalent to a bacterial population of 1.5×10^8 colony forming units (CFU) per mL of suspension. The suspension was diluted 1:10 in saline (i.e. 0.5 mL suspension 4.5 mL saline) to get a bacterial population of 1.5×10^7 CFU/mL as inoculum.
(§3) The inoculated petridishes were incubated at 35° C. in an ambient atmosphere for 16-20 hours.

E. faecium MRO 04198 = type: cell-based, Enterococcus faecium
Protocol: as §1, §2, §3

E. faecium MRO 04038 = type: cell-based, Enterococcus faecium
Protocol: as §1, §2, §3

E. faecium MRO 04037 = type: cell-based, Enterococcus faecium
Protocol: as §1, §2, §3

[1] = tested on: M. catarrhalis ATCC 43628; type: cell-based, Moraxella catarrhalis
Protocol: as §1, §2, §3

[2] = tested on: M. catarrhalis ATCC 43617; type: cell-based, Moraxella catarrhalis
Protocol: as §1, §2, §3

[3] = tested on: M. catarrhalis ATCC 43627; type: cell-based, Moraxella catarrhalis
Protocol: as §1, §2, §3

S. epidermidis MRO 02095 = type: cell-based
Protocol: as §1, §2, §3

[4] = tested on: S. saprophyticus MRO 02003; type: cell-based
Protocol: as §1, §2, §3

[5] = tested on: S. epidermidis MRO 002046; type: cell-based
Protocol: as §1, §2, §3

[6] = tested on: S. haemolyticus MRO 02064; type: cell-based
Protocol: as §1, §2, §3

S. epidermidis MRO 02002 = type: cell-based
Protocol: as §1, §2, §3

S. epidermidis MRO 02045 = type: cell-based
Protocol: as §1, §2, §3

E. faecalis MRO 04205 = type: cell-based, Enterococcus faecalis
Protocol: as §1, §2, §3

E. faecalis MRO 04035 = type: cell-based, Enterococcus faecalis
Protocol: as §1, §2, §3

E. faecalis ATCC 51299 = type: cell-based, Enterococcus faecalis
Protocol: as §1, §2, §3

E. faecalis ATCC 29212 = type: cell-based, Enterococcus faecalis
Protocol: as §1, §2, §3

E. faecalis MRO 04050 = type: cell-based, Enterococcus faecalis
Protocol: as §1, §2, §3

S. aureus MRO 00059 = type: cell-based, Staphylococcus aureus
Protocol: as §1, §2, §3

S. aureus ATCC 29213 = type: cell-based, Staphylococcus aureus
Protocol: as §1, §2, §3

S. aureus MRO 0001 = type: cell-based, Staphylococcus aureus
Protocol: as §1, §2, §3

S. aureus MRO 002053 = type: cell-based, Staphylococcus aureus
Protocol: as §1, §2, §3

S. aureus ATCC 43300 = type: cell-based, Staphylococcus aureus
Protocol: as §1, §2, §3

S. aureus MRO 0003 = type: cell-based, Staphylococcus aureus
Protocol: as §1, §2, §3

S. aureus MRO 00048 = type: cell-based, Staphylococcus aureus
Protocol: as §1, §2, §3

S. aureus MRO 00030 = type: cell-based, Staphylococcus aureus
Protocol: as §1, §2, §3

S. aureus MRO 00013 = type: cell-based, Staphylococcus aureus
Protocol: as §1, §2, §3

S. aureus MRO 00055 = type: cell-based, Staphylococcus aureus
Protocol: as §1, §2, §3

Row | SMILES | Antimicrobial Screening (MIC) (E. faecium ATCC 700221) [µg/mL] | Antimicrobial Screening (MIC) (E. faecium MRO 04198) [µg/mL] | Antimicrobial Screening (MIC) (E. faecium MRO 04038) [µg/mL] | Antimicrobial Screening (MIC) (E. faecium MRO 04037) [µg/mL] | Antimicrobial Screening (MIC) [1] [µg/mL] | Antimicrobial Screening (MIC) [2] [µg/mL] | Antimicrobial Screening (MIC) [3] [µg/mL] | Antimicrobial Screening (MIC) (S. epidermidis MRO 02095) [µg/mL] | Antimicrobial Screening (MIC) [4] [µg/mL] | Antimicrobial Screening (MIC) [5] [µg/mL] | Antimicrobial Screening (MIC) [6] [µg/mL] | Antimicrobial Screening (MIC) (S. epidermidis MRO 02002) [µg/mL] | Antimicrobial Screening (MIC) (S. epidermidis MRO 02045) [µg/mL] | Antimicrobial Screening (MIC) (E. faecalis MRO 04205) [µg/mL] | Antimicrobial Screening (MIC) (E. faecalis MRO 04035) [µg/mL] | Antimicrobial Screening (MIC) (E. faecalis ATCC 51299) [µg/mL] | Antimicrobial Screening (MIC) (E. faecalis ATCC 29212) [µg/mL] | Antimicrobial Screening (MIC) (E. faecalis MRO 04050) [µg/mL] | Antimicrobial Screening (MIC) (S. aureus MRO 00059) [µg/mL] | Antimicrobial Screening (MIC) (S. aureus ATCC 29213) [µg/mL] | also measured
1 | COC(=S)NC[C@H]1CN(c2ccc(N3CCN(C(=S)n4ccnc4)CC3)c(F)c2)C(=O)O1 [Example 76, (S)—O-Methyl(3-(4-(4-(1H-imidazole-1-carbonothioyl)piperazin-1-yl)-3-fluorophenyl)-2-oxooxazolidin-5-yl)methylcarbamothioate] | 0.25 | 0.25 | 0.25 | 0.25 | 1 | 1 | 1 | 0.25 | 0.5 | 0.25 | 0.25 | 0.25 | 0.25 | 0.25 | 0.25 | 0.25 | 0.25 | 0.25 | 0.25 | 0.5 | Antimicrobial Screening (MIC) (S. aureus MRO 0001): 0.5 µg/mL; Antimicrobial Screening (MIC) (S. aureus MRO 002053): 0.25 µg/mL; Antimicrobial Screening (MIC) (S. aureus ATCC 43300): 0.25 µg/mL; Antimicrobial Screening (MIC) (S. aureus MRO 0003): 0.5 µg/mL; Antimicrobial Screening (MIC) (S. aureus MRO 00048): 0.25 µg/mL; Antimicrobial Screening (MIC) (S. aureus MRO 00030): 0.25 µg/mL; Antimicrobial Screening (MIC) (S. aureus MRO 00013): 0.5 µg/mL; Antimicrobial Screening (MIC) (S. aureus MRO 00055): 0.5 µg/mL
2 | COC(=S)NC[C@H]1CN(c2ccc(N3CCN(C(=O)C=Cc4ccc([N+](=O)[O-])o4)CC3)c(F)c2)C(=O)O1 [Example 40, (S)—O-Methyl(3-(3-fluoro-4-(4-(3-(5-nitrofuran-2-yl)acryloyl)piperazin-1-yl)phenyl)-2-oxooxazolidin-5-yl)methylcarbamothioate] | 0.125 | 0.25 | 0.25 | 0.25 | 0.125 | 0.06 | 0.125 | 0.06 | 0.06 | <0.03 | 0.125 | 0.125 | <0.03 | 0.25 | 0.25 | 0.25 | 0.25 | 0.25 | 0.25 | 0.25 | Antimicrobial Screening (MIC) (S. aureus MRO 0001): 0.25 µg/mL; Antimicrobial Screening (MIC) (S. aureus MRO 002053): 0.06 µg/mL; Antimicrobial Screening (MIC) (S. aureus ATCC 43300): 0.125 µg/mL; Antimicrobial Screening (MIC) (S. aureus MRO 0003): 0.25 µg/mL; Antimicrobial Screening (MIC) (S. aureus MRO 00048): 0.25 µg/mL; Antimicrobial Screening (MIC) (S. aureus MRO 00030): 0.125 µg/mL; Antimicrobial Screening (MIC) (S. aureus MRO 00013): 0.25 µg/mL; Antimicrobial Screening (MIC) (S. aureus MRO 00055): 0.25 µg/mL
